In patent US6870056B1, “Substitituted polycyclic aryl and heteroaryl pyridones useful for selective inhibition of the coagulation cascade” (Pharmacia Corporation, priority 1999, dated 2005):

What was measured:
Assay type in all cases: biochemical
human thrombin = human thrombin (Homo sapiens, UniProt P00734); assay: Thrombin Assay; settings: chromogenic substrate, 60 min, room temperature, pH 8.0; read-out: Thrombin II IC50
Protocol: Percent inhibition of thrombin activity is calculated from OD405 nm value from the experimental and control sample.
Recombinant human VIIa was purchased from American Diagnostica, Greenwich Conn. and chromogenic substrate N-Methylsulfonyl-D-phe-gly-arg-p-nitroaniline was prepared by American Peptide Company, Inc., Sunnyvale, Calif. Factor Xa was obtained from Enzyme Research Laboratories, South Bend Ind., thrombin from Calbiochem, La Jolla, Calif., and trypsin and L-BAPNA from Sigma, St Louis Mo.

[1] = biological target: T1, recombinant soluble tissue factor and recombinant human factor VIIa (TF-VIIa) (Homo sapiens, UniProt P08709); assay: TF-VIIa Assay; settings: chromogenic substrate, 60 min, room temperature, pH 8.0
T1 construct: purchased American Diagnostica, Greenwich Conn; host or cells: soluble TF made in house in E. coli
T1 sequence (P08709 213-466 limits assumed): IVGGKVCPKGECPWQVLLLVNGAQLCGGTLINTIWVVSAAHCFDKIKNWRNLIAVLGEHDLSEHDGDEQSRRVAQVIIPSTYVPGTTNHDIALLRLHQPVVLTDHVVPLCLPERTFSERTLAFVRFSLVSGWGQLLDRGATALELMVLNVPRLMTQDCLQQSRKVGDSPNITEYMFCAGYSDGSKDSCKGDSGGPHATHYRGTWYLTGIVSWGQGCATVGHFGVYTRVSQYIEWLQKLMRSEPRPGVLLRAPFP
T1 sequence (P08709 61-212 partner limits assumed): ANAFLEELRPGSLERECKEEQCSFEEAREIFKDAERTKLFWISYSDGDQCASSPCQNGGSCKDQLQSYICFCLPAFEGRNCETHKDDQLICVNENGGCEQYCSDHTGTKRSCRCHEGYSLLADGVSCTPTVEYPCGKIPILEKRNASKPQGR
T1 sequence (P13726 33-251 partner limits assumed): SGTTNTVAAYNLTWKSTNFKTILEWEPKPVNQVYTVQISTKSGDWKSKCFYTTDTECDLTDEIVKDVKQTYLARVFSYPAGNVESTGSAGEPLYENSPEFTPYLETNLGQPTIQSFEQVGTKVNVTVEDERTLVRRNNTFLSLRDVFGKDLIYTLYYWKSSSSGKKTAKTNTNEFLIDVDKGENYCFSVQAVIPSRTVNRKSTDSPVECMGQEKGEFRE
Protocol: (§1) In this assay 100 nM recombinant soluble tissue factor and 2 nM recombinant human factor VIIa are added to a 96-well assay plate containing 0.4 mM of the substrate, N-Methylsulfonyl-D-phe-gly-arg-p-nitroaniline and either inhibitor or buffer (5 mM CaCl2,50 mM Tris-HCl, pH 8.0, 100 mM NaCl, 0.1% BSA). The reaction, in a final volume of 100 ul is measured immediately at 405 nm to determine background absorbance. The plate is incubated at room temperature for 60 min, at which time the rate of hydrolysis of the substrate is measured by monitoring the reaction at 405 nm for the release of p-nitroaniline. Percent inhibition of TF-VIIa activity is calculated from OD405 nm value from the experimental and control sample.
(§2) Recombinant soluble TF, consisting of amino acids 1-219 of the mature protein sequence was expressed in E. coli and purified using a Mono Q Sepharose FPLC. Recombinant human VIIa was purchased from American Diagnostica, Greenwich Conn. and chromogenic substrate N-Methylsulfonyl-D-phe-gly-arg-p-nitroaniline was prepared by American Peptide Company, Inc., Sunnyvale, Calif. Factor Xa was obtained from Enzyme Research Laboratories, South Bend Ind., thrombin from Calbiochem, La Jolla, Calif., and trypsin and L-BAPNA from Sigma, St Louis Mo. The chromogenic substrates S-2765 and S-2238 were purchased from Chromogenix, Sweden.

[2] = biological target: T2, trypsin, type IX from porcine pancreas (Sus scrofa, UniProt P00761); assay: Trypsin Assay; settings: L-BAPNA substrate, 60 min, room temperature, pH 8.0; read-out: Trpysin II ICSO
T2 construct: purchased Sigma, St Louis Mo. type IX; host or cells: porcine pancreas
T2 sequence (P00761 9-231): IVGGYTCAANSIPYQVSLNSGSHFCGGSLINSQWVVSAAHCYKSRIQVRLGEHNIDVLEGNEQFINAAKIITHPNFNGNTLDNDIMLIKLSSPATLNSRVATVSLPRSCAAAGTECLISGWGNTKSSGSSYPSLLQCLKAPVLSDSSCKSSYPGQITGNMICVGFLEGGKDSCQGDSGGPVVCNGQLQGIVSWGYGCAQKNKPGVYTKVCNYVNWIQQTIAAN
Protocol: 5 ug/ml trypsin, type IX from porcine pancreas and 0.375 mM N-α-Benzoyl-L-arginine-p-nitroanilide (L-BAPNA) are added to a 96-well assay plate containing either inhibitor or buffer (50 mM Tris-HCl, pH 8.0, 100 mM NaCl, 0.1% BSA). The reactions, in a final volume of 100 ul are measured immediately at 405 nm to determine background absorbance. The plate is incubated at room temperature for 60 min, at which time the rate of hydrolysis of the substrate is measured by monitoring the reaction at 405 nm for the release of p-nitroaniline. Percent inhibition of trypsin activity is calculated from OD405 nm value from the experimental and control sample.
as §2

human factor Xa = biological target: T3, human factor Xa (Homo sapiens, UniProt P00742); assay: Xa Assay; settings: S-2765 substrate, 60 min, room temperature, pH 8.0
T3 construct: leads from XII to XIIa to XIa to IXa and to the conversion of X to Xa; purchased Enzyme Research Laboratories, South Bend Ind
T3 sequence (P00742 235-488 limits assumed): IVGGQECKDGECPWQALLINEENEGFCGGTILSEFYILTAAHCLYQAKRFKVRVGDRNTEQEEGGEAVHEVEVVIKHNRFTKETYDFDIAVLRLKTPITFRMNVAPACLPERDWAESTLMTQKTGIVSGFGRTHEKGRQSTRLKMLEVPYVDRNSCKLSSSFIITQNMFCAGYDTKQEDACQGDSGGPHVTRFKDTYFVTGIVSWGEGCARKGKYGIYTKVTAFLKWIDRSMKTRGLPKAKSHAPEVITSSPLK
T3 sequence (P00742 41-179 partner limits assumed): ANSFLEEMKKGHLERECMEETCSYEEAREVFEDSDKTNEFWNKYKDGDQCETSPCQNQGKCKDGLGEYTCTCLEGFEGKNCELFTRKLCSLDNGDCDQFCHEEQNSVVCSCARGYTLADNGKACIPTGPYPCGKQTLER
Protocol: as §1, with “0.3” for “In this assay 100”, “nM” for “nM recombinant soluble tissue factor and 2 nM recombinant”, “Xa and 0.15 mM N-α-Benzyloxycarbonyl-D-arginyl-L-glycyl-L-arginine-p-nitroaniline-dihydrochloride (S-2765)” for “VIIa”, “containing” for “containing 0.4 mM of the substrate, N-Methylsulfonyl-D-phe-gly-arg-p-nitroaniline and”, “(50” for “(5 mM CaCl2,50”, “Xa” for “TF-VIIa”
as §2

IC50 (human thrombin) [µM]	IC50 [1] [µM]	IC50 [2] [µM]	IC50 (human factor Xa) [µM]	Compound
> 30	> 30	> 30	> 30	O=C(Cn1c(=O)c(NS(=O)(=O)Cc2ccccc2)cc2ccccc21)NCCc1cccnc1 [Example 14]
> 30	> 30	> 30	> 30	NCCCCCNC(=O)Cn1c(=O)c(NS(=O)(=O)Cc2ccccc2)cc2ccccc21 [Example 8]
0.7	4.6	0.21	0.07	N=C(N)NCCC[C@H](NC(=O)Cn1c(=O)c(NS(=O)(=O)Cc2ccccc2)cc2ccccc21)C(=O)c1nccs1 [Example 1]
22.7	> 30	0.48	23.1	N=C(N)c1ccc(CNC(=O)Cn2c(=O)c(NS(=O)(=O)c3ccccc3)cc3ccccc32)cc1 [Example 4]
0.5	> 30	0.6	17	N=C(N)N1CCC(CNC(=O)Cn2c(CCc3ccccc3)ccc(NS(=O)(=O)Cc3ccccc3)c2=O)CC1 [Example 21]
> 30	> 30	> 30	> 30	O=C(Cn1c(=O)c(NS(=O)(=O)Cc2ccccc2)cc2ccccc21)NCCc1cnc[nH]1 [Example 13]
> 30	> 30	> 30	> 30	NCc1cccc(CNC(=O)Cn2c(=O)c(NS(=O)(=O)Cc3ccccc3)cc3ccccc32)c1 [Example 11]
> 30	> 30	> 30	> 30	O=C(Cn1c(=O)c(NS(=O)(=O)Cc2ccccc2)cc2ccccc21)NCCCn1ccnc1 [Example 12]
> 30	> 30	> 30	> 30	CN(C)CCCCCCNC(=O)Cn1c(=O)c(NS(=O)(=O)Cc2ccccc2)cc2ccccc21 [Example 9]
5.5	46	0.5	7.7	N=C(N)c1ccc(CNC(=O)Cn2c(=O)c(NS(=O)(=O)Cc3ccccc3)cc3ccccc32)cc1 [Example 2, N-[[4-[(amino)iminomethyl]phenyl]methyll]-2-[3-benzylsulfonyl-amino-2-oxo-2H-quinolin-1-yl]acetamide]
< 0.04	0.8	0.2	< 4	Cc1ccc(NS(=O)(=O)Cc2ccccc2)c(=O)n1CC(=O)N[C@@H](CCCNC(=N)N)C(=O)c1nccs1 [Example 18, N-[2(S)-2-[1-Oxo-1-(2-thiazolyl)]-5-[[(amino)iminomethyl]amino]pentyl]-2-[6-methyl-2-oxo-3-[[(phenylmethyl)sulfonyl]amino]-1(2H)-pyrid-1-yl]acetamide]
0.2	1.1	0.3	0.1	N=C(N)NCCC[C@H](NC(=O)Cn1c(CCc2ccccc2)ccc(NS(=O)(=O)Cc2ccccc2)c1=O)C(=O)c1nccs1 [Example 17, N-[2(S)-2-[1-Oxo-1-(2-thiazolyl)]-5-[[(amino)iminomethyl]amino]pentyl]-2-[6-(2-phenylethyl)-2-oxo-3-[[(phenylmethyl)sulfonyl]amino]-1(2H)-pyrid-1-yl]acetamide]
> 30	> 30	> 30	> 30	Nc1ccc(CCNC(=O)Cn2c(=O)c(NS(=O)(=O)Cc3ccccc3)cc3ccccc32)cc1 [Example 6]
0.3	23	0.5	5.7	Cc1ccc(NS(=O)(=O)Cc2ccccc2)c(=O)n1CC(=O)NCc1ccc(C(=N)N)cc1 [Example 20, N-[(4-[[amino)iminomethyl]phenyl]methyl]-2-[6-methyl-2-oxo-3-[[(phenylmethyl)sulfonyl]amino]-1(2H)-pyrid-1-yl]acetamide]
–	> 30	11.1	–	Cc1ccc(NS(=O)(=O)Cc2ccccc2)c(=O)n1CC(=O)NCC1CCN(C(=N)N)CC1 [Example 22]
> 30	> 30	> 30	> 30	CN1CCC(CCCNC(=O)Cn2c(=O)c(NS(=O)(=O)Cc3ccccc3)cc3ccccc32)CC1 [Example 15]
0.4	18	< 0.1	4.1	N=C(N)c1ccc(CNC(=O)Cn2c(CCc3ccccc3)ccc(NS(=O)(=O)Cc3ccccc3)c2=O)cc1 [Example 19, N-[[4-[(amino)iminomethyl]phenyl]methyl)-2-[6-(2-phenylethyl)-2-oxo-3-[[(phenylmethyl)sulfonyl]amino]-1(2H)-pyrid-1-yl]acetamide]
> 30	> 30	> 30	> 30	Nc1ccc(CNC(=O)Cn2c(=O)c(NS(=O)(=O)Cc3ccccc3)cc3ccccc32)cc1 [Example 16]
> 30	> 30	> 30	> 30	NCc1ccc(CNC(=O)Cn2c(=O)c(NS(=O)(=O)Cc3ccccc3)cc3ccccc32)cc1 [Example 10]
> 30	> 30	> 30	> 30	NCCCCNC(=O)Cn1c(=O)c(NS(=O)(=O)Cc2ccccc2)cc2ccccc21 [Example 7]
11	26.1	0.86	> 30	N=C(N)c1ccc(CNC(=O)Cn2c(=O)c(NCCc3ccccc3)cc3ccccc32)cc1 [Example 3]
